For one assay, the target named is T1, HIS-TGFβR1 T204D (Homo sapiens, UniProt P36897, T204D).
T1 sequence (P36897 34-503 T204D): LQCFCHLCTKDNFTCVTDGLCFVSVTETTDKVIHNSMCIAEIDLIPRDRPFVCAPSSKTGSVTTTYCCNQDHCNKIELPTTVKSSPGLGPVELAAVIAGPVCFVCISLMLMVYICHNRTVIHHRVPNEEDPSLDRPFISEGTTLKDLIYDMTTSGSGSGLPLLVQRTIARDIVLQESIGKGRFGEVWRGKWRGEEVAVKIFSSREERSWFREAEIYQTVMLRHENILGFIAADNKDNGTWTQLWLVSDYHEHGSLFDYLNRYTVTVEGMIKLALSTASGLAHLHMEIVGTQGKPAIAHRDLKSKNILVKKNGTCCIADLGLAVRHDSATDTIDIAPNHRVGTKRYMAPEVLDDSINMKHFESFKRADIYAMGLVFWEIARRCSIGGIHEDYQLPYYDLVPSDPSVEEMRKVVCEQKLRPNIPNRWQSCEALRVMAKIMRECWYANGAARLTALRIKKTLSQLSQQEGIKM
Description: HTRF probe-displacement assay, HIS-TGFβR1 T204D. The note with it: read-out: TGFβR1 (μM) IC50. In kind it is binding. A general note: Time-resolved FRET reads energy transfer from a long-lived donor to a nearby acceptor.

For the next assay, the target named is HIS-TGFβR2 WT (Homo sapiens, UniProt P37173). Nature of the assay: HTRF probe-displacement assay, HIS-TGFβR2 WT. It counts as binding.

Structures are written as SMILES. Like-named read-outs stand apart in the source and are kept apart here. Bounds are passed on as bounds.

Chain of HIS-TGFβR2 WT (P37173 23-567): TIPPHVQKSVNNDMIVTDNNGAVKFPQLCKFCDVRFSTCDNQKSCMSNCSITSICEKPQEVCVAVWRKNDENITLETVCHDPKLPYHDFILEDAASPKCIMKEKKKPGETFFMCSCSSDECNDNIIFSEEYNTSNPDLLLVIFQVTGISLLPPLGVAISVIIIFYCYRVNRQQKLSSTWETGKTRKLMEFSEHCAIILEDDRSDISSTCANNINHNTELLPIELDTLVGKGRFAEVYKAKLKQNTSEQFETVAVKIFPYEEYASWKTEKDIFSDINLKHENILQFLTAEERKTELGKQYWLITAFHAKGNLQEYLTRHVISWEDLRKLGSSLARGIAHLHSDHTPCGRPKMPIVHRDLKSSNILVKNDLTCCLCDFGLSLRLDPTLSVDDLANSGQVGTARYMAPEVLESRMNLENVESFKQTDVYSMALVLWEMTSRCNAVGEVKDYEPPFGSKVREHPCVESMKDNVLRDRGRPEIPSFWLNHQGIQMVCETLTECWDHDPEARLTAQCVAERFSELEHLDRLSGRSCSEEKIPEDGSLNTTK

By IC50 is commonly meant the concentration that gives 50% inhibition. With `CC(=O)Nc1cc(-c2[nH]c3cc(Cl)cnc3c2-c2nc(C(F)F)cs2)ccn1` [Example 172, N-(4-(6-Chloro-3-(4-(difluoromethyl)thiazol-2-yl)-1H-pyrrolo[3,2-b]pyridin-2-yl)pyridin-2-yl)acetamide], the IC50 on HIS-TGFβR1 T204D was 0.0004 µM; on HIS-TGFβR2 WT, 3.98 µM.

With `CC(=O)Nc1cc(-c2[nH]c3cccnc3c2-c2ccc3ncccc3c2)ccn1` [Example 22, N-{4-[3-(Quinolin-6-yl)-1H-pyrrolo[3,2-b]pyridin-2-yl]pyridin-2-yl}acetamide], the IC50 on HIS-TGFβR1 T204D is 0.039 µM; on HIS-TGFβR2 WT it was over 15 µM.

With `COC(=O)Nc1cc(-c2[nH]c3cc(Cl)cnc3c2-c2ccc(F)cn2)ccn1` [Example 85, Methyl N-{4-[6-chloro-3-(5-fluoropyridin-2-yl)-1H-pyrrolo[3,2-b]pyridin-2-yl]pyridin-2-yl}carbamate], the IC50 on HIS-TGFβR1 T204D stood at 0.01 µM; on HIS-TGFβR2 WT it was 4.05 µM. The corresponding values for `COc1ccc(-c2c(-c3ccnc(NC(C)=O)c3)[nH]c3cc(OC4COC4)cnc23)nc1` [Example 98, N-(4-(3-(5-Methoxypyridin-2-yl)-6-(oxetan-3-yloxy)-1H-pyrrolo[3,2-b]pyridin-2-yl)pyridin-2-yl)acetamide] are 0.002 µM and over 15 µM. In the case of `CC(=O)Nc1cc(-c2[nH]c3c(C(F)F)ccnc3c2-c2nc(C)cs2)ccn1` [Example 222, N-(4-(7-(Difluoromethyl)-3-(4-methylthiazol-2-yl)-1H-pyrrolo[3,2-b]pyridin-2-yl)pyridin-2-yl)acetamide], the IC50 on HIS-TGFβR1 T204D was found to be 0.0015 µM; on HIS-TGFβR2 WT it was 0.129 µM. For `COc1ccc(-c2c(-c3ccnc(NC(C)=O)c3)[nH]c3cc(-c4c(C)noc4C)cnc23)nc1` [Example 93, N-{4-[6-(Dimethyl-1,2-oxazol-4-yl)-3-(5-methoxypyridin-2-yl)-1H-pyrrolo[3,2-b]pyridin-2-yl]pyridin-2-yl}acetamide], in that order: 0.003 µM and over 15 µM. As to `O=C(CNCCO)Nc1cc(-c2[nH]c3cc(Cl)cnc3c2-c2ccc(F)cn2)ccn1` [Example 75, N-{4-[6-Chloro-3-(5-fluoropyridin-2-yl)-1H-pyrrolo[3,2-b]pyridin-2-yl]pyridin-2-yl}-2-[(2-hydroxyethyl)amino]acetamide], the IC50 at HIS-TGFβR1 T204D was found to be 0.005 µM; at HIS-TGFβR2 WT it was 1.03 µM. For `COc1ccc(-c2c(-c3ccnc(NC(C)=O)c3)[nH]c3cc(N4CCCC4)cnc23)nc1` [Example 167, N-(4-(3-(5-Methoxypyridin-2-yl)-6-(pyrrolidin-1-yl)-1H-pyrrolo[3,2-b]pyridin-2-yl)pyridin-2-yl)acetamide], in that order: 0.0171 µM and over 15 µM. For `CC(=O)Nc1cc(-c2[nH]c3cccnc3c2-c2nc(C)cs2)ccn1` [Example 199, N-(4-(3-(4-Methylthiazol-2-yl)-1H-pyrrolo[3,2-b]pyridin-2-yl)pyridin-2-yl)acetamide], in that order: 0.0006 µM and 0.041 µM.

For the compound `CCN1CCN(CC(=O)Nc2cc(-c3[nH]c4cc(Cl)cnc4c3-c3ccc(OC)nc3)ccn2)CC1` [Example 291, N-(4-(6-chloro-3-(6-methoxypyridin-3-yl)-1H-pyrrolo[3,2-b]pyridin-2-yl)pyridin-2-yl)-2-(4-ethylpiperazin-1-yl)acetamide], the IC50 came out at 0.001 µM on HIS-TGFβR1 T204D and 1.66 µM on HIS-TGFβR2 WT. For `CC(=O)Nc1cc(-c2[nH]c3cccnc3c2-c2ccc(F)c(C)n2)ccn1` [Example 23, N-{4-[3-(5-Fluoro-6-methylpyridin-2-yl)-1H-pyrrolo[3,2-b]pyridin-2-yl]pyridin-2-yl}acetamide], the IC50 on HIS-TGFβR1 T204D was 0.003 µM; at HIS-TGFβR2 WT, 0.68 µM.

With `CC(=O)Nc1cc(-c2[nH]c3cccnc3c2-c2ccn[nH]2)ccn1` [Example 191, N-(4-(3-(1H-Pyrazol-5-yl)-1H-pyrrolo[3,2-b]pyridin-2-yl)pyridin-2-yl)acetamide], the figures for the IC50 at HIS-TGFβR1 T204D and at HIS-TGFβR2 WT were 0.0939 µM and 2 µM, respectively. As to `CCOc1cnc2c(-c3cccc(C(F)F)n3)c(-c3ccnc(NC(C)=O)c3)[nH]c2c1` [Example 101, N-(4-(3-(6-(Difluoromethyl)pyridin-2-yl)-6-ethoxy-1H-pyrrolo[3,2-b]pyridin-2-yl)pyridin-2-yl)acetamide], the concentration for half-maximal inhibition (IC50) on HIS-TGFβR2 WT stood at 4.29 µM.

For `COCC(C)Oc1cnc2c(-c3cccc(C(F)F)n3)c(-c3ccnc(NC(C)=O)c3)[nH]c2c1` (stereo not drawn) [Example 103], the IC50 at HIS-TGFβR2 WT is 4.92 µM. On the same count and under the same terms, the value for `CCc1ccnc2c(-c3cccc(C(F)F)n3)c(-c3ccnc(NC(C)=O)c3)[nH]c12` [Example 128, N-(4-{3-[6-(Difluoromethyl)pyridin-2-yl]-7-ethyl-1H-pyrrolo[3,2-b]pyridin-2-yl}pyridin-2-yl)acetamide] was 5.26 µM; that for `[2H]C([2H])([2H])Oc1cnc2c(-c3cccc(C(F)F)n3)c(-c3ccnc(NC(C)=O)c3)[nH]c2c1` [Example 100, N-(4-(3-(6-(Difluoromethyl)pyridin-2-yl)-6-(methoxy-d3)-1H-pyrrolo[3,2-b]pyridin-2-yl)pyridin-2-yl)acetamide] was 2.62 µM; that for `COc1cnc2c(-c3csc(C#N)n3)c(-c3ccnc(NC(C)=O)c3)[nH]c2c1` [Example 228, N-(4-(3-(2-Cyanothiazol-4-yl)-6-methoxy-1H-pyrrolo[3,2-b]pyridin-2-yl)pyridin-2-yl)acetamide] was 4.24 µM. The same measure, in the same setting: the value for `COc1ccnc2c(-c3cccc(F)n3)c(-c3ccnc(NC(C)=O)c3)[nH]c12` [Example 273, N-(4-(3-(6-Fluoropyridin-2-yl)-7-methoxy-1H-pyrrolo[3,2-b]pyridin-2-yl)pyridin-2-yl)acetamide] was 1.36 µM; that for `CC(=O)Nc1cc(-c2[nH]c3cc(OC(C)C)cnc3c2-c2cccc(C(F)F)n2)ccn1` [Example 102, N-(4-(3-(6-(Difluoromethyl)pyridin-2-yl)-6-isopropoxy-1H-pyrrolo[3,2-b]pyridin-2-yl)pyridin-2-yl)acetamide] was 3.45 µM; that for `CC(=O)Nc1cc(-c2[nH]c3cc(F)cnc3c2-c2csc(C)n2)ccn1` [Example 207, N-(4-(6-Fluoro-3-(2-methylthiazol-4-yl)-1H-pyrrolo[3,2-b]pyridin-2-yl)pyridin-2-yl)acetamide] was 5.65 µM.

Regarding `[2H]C([2H])([2H])Oc1ccc(-c2c(-c3ccnc(NC(C)=O)c3)[nH]c3cc(F)cnc23)nc1` [Example 106, N-(4-(6-Fluoro-3-(5-(methoxy-d3)pyridin-2-yl)-1H-pyrrolo[3,2-b]pyridin-2-yl)pyridin-2-yl)acetamide], at HIS-TGFβR1 T204D (1 nM HIS-TGFβR1 T204D, labeled probe at Kd, 1 hour room temperature, eleven concentrations), the IC50 was determined as 0.003 µM. With `COc1ccnc2c(-c3nc(C(F)F)cs3)c(-c3ccnc(NC(C)=O)c3)[nH]c12` [Example 270, N-(4-(3-(4-(Difluoromethyl)thiazol-2-yl)-7-methoxy-1H-pyrrolo[3,2-b]pyridin-2-yl)pyridin-2-yl)acetamide], the IC50 on HIS-TGFβR2 WT was found to be 7.55 µM. Same read-out and setting: the value for `CC(=O)Nc1cc(-c2[nH]c3cc(OC4COC4)cnc3c2-c2cccc(C(F)F)n2)ccn1` [Example 99, N-(4-(3-(6-(Difluoromethyl)pyridin-2-yl)-6-(oxetan-3-yloxy)-1H-pyrrolo[3,2-b]pyridin-2-yl)pyridin-2-yl)acetamide] was 2.75 µM; that for `CC(=O)Nc1cc(-c2[nH]c3cc(Cl)cnc3c2-c2csc(C)n2)ccn1` [Example 181, N-(4-(6-Chloro-3-(2-methylthiazol-4-yl)-1H-pyrrolo[3,2-b]pyridin-2-yl)pyridin-2-yl)acetamide] was 1.07 µM.

The values above are taken from patent publication US9708316B2 (BRISTOL-MYERS SQUIBB COMPANY, priority 2014, dated 2017).
